According to ChEMBL document CHEMBL3120127, “2,4-Diaminothienopyrimidines as orally active antimalarial agents” (J Med Chem, 2014):
≈ marks a conversion by molar mass, not a printed value.

How the values were obtained:
[1] = Solubility of the compound in phosphate buffer at pH 6.5 by nephlometric analysis; format: physicochemical
[2] = Solubility of the compound in 0.01 M HCl at pH 2; format: physicochemical
[3] = physchem; settings: octanol/water, pH 7.4
[4] = Plasma concentration in Swiss outbred mouse infected with Plasmodium berghei at 50 mg/kg, po measured at 1 hr; format: ADME, organism-based; parameters: dose 50 mg/kg, route oral
[5] = Plasma concentration in Swiss outbred mouse infected with Plasmodium berghei at 50 mg/kg, po measured at 4 hrs; format: ADME, organism-based; parameters: dose 50 mg/kg, route oral
[6] = Plasma concentration in Swiss outbred mouse infected with Plasmodium berghei at 50 mg/kg, po measured at 24 hrs; format: ADME, organism-based; parameters: dose 50 mg/kg, route oral
[7] = Solubility of the compound in phosphate buffer at pH 6.5 by HPLC-DAD-MS analysis; format: physicochemical
[8] = test system: Rattus norvegicus; test: Tmax in Sprague-Dawley rat at 19 mg/kg, po; format: ADME, organism-based; parameters: dose 19 mg/kg, route oral; settings: in vivo
[9] = Volume of distribution at steady state in Sprague-Dawley rat blood at 4 mg/kg, iv; format: ADME, organism-based; parameters: dose 4 mg/kg, route intravenous; settings: read-out: Vdss
[10] = test system: Rattus norvegicus; test: Cmax in Sprague-Dawley rat at 19 mg/kg, po; format: ADME, organism-based; parameters: dose 19 mg/kg, route oral; settings: in vivo
[11] = Oral bioavailability in Sprague-Dawley rat at 19 mg/kg; format: ADME, organism-based; settings: in vivo
[12] = Volume of distribution at steady state in Sprague-Dawley rat plasma at 4 mg/kg, iv; format: ADME, organism-based; parameters: dose 4 mg/kg, route intravenous; settings: read-out: Vdss
[13] = test system: Rattus norvegicus; test: AUC (0 to infinity) in Sprague-Dawley rat at 19 mg/kg, po; format: ADME, organism-based, Plasma; parameters: time infinity, dose 19 mg/kg, route oral; settings: in vivo
[14] = AUC (0 to infinity) in Sprague-Dawley rat at 4 mg/kg, iv; format: ADME, organism-based; parameters: dose 4 mg/kg, route intravenous, time infinity; settings: plasma

solubility kinetic [1]	solubility [2]	chromatographic logD [3]	solubility [7]	SMILES	other results
12.5 µg/mL (≈ 35.1 µM)	> 100 µg/mL	2.3	–	CNc1nc(NCCCN(C)C)c2sc(-c3ccc(N)cc3)cc2n1	–
12.5 µg/mL (≈ 29.4 µM)	> 100 µg/mL	3.5	–	CNc1nc(NCCCN(C)C)c2sc(-c3ccc(N4CCNCC4)cc3)cc2n1	–
> 100 µg/mL	> 100 µg/mL	4.3	–	CNc1nc(NCCCN(C)C)c2sc(-c3cccc(OC(F)(F)F)c3)cc2n1	–
25 µg/mL (≈ 55 µM)	> 100 µg/mL	2.2	–	CNc1nc(NCCCN(C)C)c2sc(-c3ccc(C(=O)N4CCOCC4)cc3)cc2n1	–
–	–	–	–	CNc1nc(NCCCN(C)C)c2sc(-c3ccc(F)cc3)cc2n1	concentration at 1 h [4]: 140 nM; concentration at 4 h [5]: 90 nM; concentration at 24 h [6]: 40 nM
–	180 µg/mL (≈ 440 µM)	–	160 µg/mL (≈ 391 µM)	CNc1nc(NCCCN(C)C)c2sc(-c3cccc(C(F)(F)F)c3)cc2n1	–
–	217 µg/mL (≈ 532 µM)	–	191 µg/mL (≈ 469 µM)	CNc1nc(NCCCN(C)C)c2sc(-c3ccc(-n4cccn4)cc3)cc2n1	–
12.5 µg/mL (≈ 30.5 µM)	> 100 µg/mL	3	–	CNc1nc(NCCCN(C)C)c2sc(-c3ccc(C(F)(F)F)nc3)cc2n1	–
> 100 µg/mL	> 100 µg/mL	4.6	–	CNc1nc(NCCCN(C)C)c2sc(-c3ccc(OC(F)(F)F)cc3)cc2n1	–
–	214 µg/mL (≈ 623 µM)	–	194 µg/mL (≈ 565 µM)	CNc1nc(NCCCN(C)C)c2sc(-c3cncnc3)cc2n1	–
> 100 µg/mL	> 100 µg/mL	2.2	–	CNc1nc(NCCCN(C)C)c2sc(-c3ccccc3)cc2n1	Tmax [8]: 1.75 h; Vd [9]: 37 L/kg; Cmax [10]: 8 nM; bioavailability [11]: 34%; Vd [12]: 139 L/kg; AUC [13]: 125 µM·min; AUC(0-inf) [14]: 1.28 µM·h
–	221 µg/mL (≈ 667 µM)	–	203 µg/mL (≈ 612 µM)	CNc1nc(NCCCN(C)C)c2sc(-c3ccoc3)cc2n1	–
–	216 µg/mL (≈ 633 µM)	–	184 µg/mL (≈ 539 µM)	CNc1nc(NCCCN(C)C)c2cc(-c3ccccc3)sc2n1	–
25 µg/mL (≈ 65.2 µM)	> 100 µg/mL	3.3	–	CNc1nc(NCCCN(C)C)c2sc(-c3ccc4nonc4c3)cc2n1	–
25 µg/mL (≈ 68.2 µM)	> 100 µg/mL	2.9	–	CNc1nc(NCCCN(C)C)c2sc(-c3cccc(C#N)c3)cc2n1	–
25 µg/mL (≈ 67.1 µM)	> 100 µg/mL	2.8	–	CNc1nc(NCCCN(C)C)c2sc(-c3ccc(OC)nc3)cc2n1	–
25 µg/mL (≈ 59.6 µM)	> 100 µg/mL	2.1	–	CNc1nc(NCCCN(C)C)c2sc(-c3ccc(S(C)(=O)=O)cc3)cc2n1	–
25 µg/mL (≈ 57.5 µM)	> 100 µg/mL	2.1	–	CNc1nc(NCCCN(C)C)c2sc(-c3ccc(NS(C)(=O)=O)cc3)cc2n1	–
–	214 µg/mL (≈ 658 µM)	–	203 µg/mL (≈ 624 µM)	CNc1nc(NCCCN(C)C)c2oc(-c3ccccc3)cc2n1	–
12.5 µg/mL (≈ 32.6 µM)	> 100 µg/mL	2.9	–	CNc1nc(NCCCN(C)C)c2sc(-c3ccc(C(C)=O)cc3)cc2n1	–
50 µg/mL (≈ 136 µM)	> 100 µg/mL	–	–	CNc1nc(NCCCN(C)C)c2sc(-c3ccc(C#N)cc3)cc2n1	–
12.5 µg/mL (≈ 29.3 µM)	12.5 µg/mL (≈ 29.3 µM)	3	–	CNc1nc(NCCCN(C)C)c2sc(-c3ccc(N4CCOCC4)cc3)cc2n1	–
–	240 µg/mL (≈ 586 µM)	4.1	177 µg/mL (≈ 432 µM)	CNc1nc(NCCCN(C)C)c2sc(-c3ccc(C(F)(F)F)cc3)cc2n1	concentration at 1 h [4]: 410 nM; concentration at 4 h [5]: 220 nM; concentration at 24 h [6]: 210 nM
–	186 µg/mL (≈ 390 µM)	–	130 µg/mL (≈ 272 µM)	CNc1nc(NCCCN(C)C)c2sc(-c3cc(C(F)(F)F)cc(C(F)(F)F)c3)cc2n1	–
> 100 µg/mL	> 100 µg/mL	4.5	–	CNc1nc(NCCCN(C)C)c2sc(-c3ccc(C(F)(F)F)cc3Cl)cc2n1	–
